ChEMBL document CHEMBL1201862, “PubChem BioAssay data set” (2004)
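All cell lines were grown in 96-well plates and treated with compound for 48 hours. Abbreviation: GI50, concentration required for 50% inhibition of growth.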 Activity calls are given as the source filed them. No stated cut-off is given here; in the data, active = GI50 up to about 1.1 µM and inactive = higher.

How the values were obtained:
Experiment in all cases: growth of human tumour cells (NCI), 48 h
[1] = tested on: SNB-78
[2] = tested on: LXFL 529
[3] = tested on: DLD-1
[4] = tested on: DMS-114
[5] = tested on: DMS-273
[6] = tested on: XF498
[7] = tested on: KM-20L2
[8] = tested on: RXF 631
[9] = tested on: HOP-18

| SMILES | GI50 [1] | GI50 [2] | GI50 [3] | GI50 [4] | GI50 [5] | GI50 [6] | GI50 [7] | GI50 [8] | GI50 [9] |
| --- | --- | --- | --- | --- | --- | --- | --- | --- | --- |
| O=C(CC1(O)C(=O)Nc2ccccc21)c1ccccc1O (stereo not drawn) | > 100 µM (inactive) | > 100 µM (inactive) | > 100 µM (inactive) | > 100 µM (inactive) | > 100 µM (inactive) | > 100 µM (inactive) | > 100 µM (inactive) | > 100 µM (inactive) | – |
| O=C(c1cc(=O)c2ccc(O)cc2o1)c1ccc(Cl)cc1Cl | 31.3 µM (inactive) | – | 17.4 µM (inactive) | 3.92 µM (inactive) | 3.89 µM (inactive) | 26.8 µM (inactive) | 10.6 µM (inactive) | 11.1 µM (inactive) | 29.4 µM (inactive) |
| Cc1nc2c(n1C(C)(C)C)C(=O)c1ccccc1C2=O | > 100 µM (inactive) | 67.9 µM (inactive) | 87.3 µM (inactive) | – | 52.8 µM (inactive) | 44 µM (inactive) | 51.5 µM (inactive) | – | – |
| CC1=CC(C)(c2c[nH]c3ccccc23)CC(C)(C)c2c1[nH]c1ccccc21 (stereo not drawn) | 28.2 µM (inactive) | 30.1 µM (inactive) | 13.7 µM (inactive) | 14.9 µM (inactive) | – | 20.6 µM (inactive) | 14.8 µM (inactive) | 14.5 µM (inactive) | > 100 µM (inactive) |
| NC(=O)C12CC3CC(CC(Br)(C3)C1)C2 | > 100 µM (inactive) | > 100 µM (inactive) | > 100 µM (inactive) | > 100 µM (inactive) | > 100 µM (inactive) | > 100 µM (inactive) | > 100 µM (inactive) | > 100 µM (inactive) | > 100 µM (inactive) |
| CC(C)(C)c1cc2c(OP(c3ccccc3)c3ccccc3)c(c1)Cc1cc(C(C)(C)C)cc(c1OP(c1ccccc1)c1ccccc1)Cc1cc(C(C)(C)C)cc(c1OP(c1ccccc1)c1ccccc1)Cc1cc(C(C)(C)C)cc(c1OP(c1ccccc1)c1ccccc1)C2 | > 5 µM (inactive) | > 5 µM (inactive) | > 5 µM (inactive) | > 5 µM (inactive) | > 5 µM (inactive) | – | > 5 µM (inactive) | – | > 5 µM (inactive) |
| COc1ccc(/C=C(\NC(=O)c2ccccc2)c2nc3ccccc3[nH]2)cc1 | – | 27.4 µM (inactive) | 33.6 µM (inactive) | 24.8 µM (inactive) | 29.5 µM (inactive) | 18.5 µM (inactive) | 38.5 µM (inactive) | – | – |
| Cc1cccc(C(C)(C)C)c1NC(=O)C(=O)Cc1nc2ccccc2s1 | > 100 µM (inactive) | > 100 µM (inactive) | > 100 µM (inactive) | > 100 µM (inactive) | > 100 µM (inactive) | – | > 100 µM (inactive) | > 100 µM (inactive) | > 100 µM (inactive) |
| CC12OOC(c3ccccc31)c1c2ccc2ccccc12 (stereo not drawn) | 4.11 µM (inactive) | 2.04 µM (inactive) | 1.45 µM (inactive) | 0.885 µM (active) | 8.69 µM (inactive) | – | 3.66 µM (inactive) | 8.04 µM (inactive) | 1.86 µM (inactive) |
| O=C(OCc1ccccc1)N1N=NC2C1C1CC(OCc3ccccc3)(OCc3ccccc3)C2O1 (stereo not drawn) | > 100 µM (inactive) | > 100 µM (inactive) | > 100 µM (inactive) | – | > 100 µM (inactive) | > 100 µM (inactive) | > 100 µM (inactive) | – | > 100 µM (inactive) |
| COC(=O)C12Oc3ccc(-c4ccc5c(c4O)C(=O)C4=CCC(C)C(O)C4(C(=O)OC)O5)c(O)c3C(=O)C1=CCC(C)C2O (stereo not drawn) | 1.95 µM (inactive) | 1.19 µM (inactive) | 0.798 µM (active) | 1.3 µM (inactive) | 1.62 µM (inactive) | – | 1.44 µM (inactive) | 2.13 µM (inactive) | 2.26 µM (inactive) |
| O=C1c2ccccc2C(=O)c2c1ccc1c3ccccc3n(Cc3ccccc3)c21 | – | > 100 µM (inactive) | > 100 µM (inactive) | > 100 µM (inactive) | – | > 100 µM (inactive) | – | – | 0.0319 µM (active) |
| C[C@@H](O)CCC(=O)c1ccoc1 | > 100 µM (inactive) | > 100 µM (inactive) | > 100 µM (inactive) | > 100 µM (inactive) | > 100 µM (inactive) | – | > 100 µM (inactive) | – | > 100 µM (inactive) |
| Cc1noc2cccc(O)c12 | > 100 µM (inactive) | > 100 µM (inactive) | > 100 µM (inactive) | > 100 µM (inactive) | > 100 µM (inactive) | > 100 µM (inactive) | > 100 µM (inactive) | – | > 100 µM (inactive) |
| Cc1cc(N(CCC#N)CCC#N)ccc1/C=N\c1ccc(C(=O)NN2C(=O)/C(=C/c3ccc(N(CCC#N)CCC#N)cc3)N=C2c2cc([N+](=O)[O-])ccc2Cl)cc1 | > 100 µM (inactive) | 71.6 µM (inactive) | 78.9 µM (inactive) | > 100 µM (inactive) | 47.6 µM (inactive) | 61.9 µM (inactive) | 67.1 µM (inactive) | > 100 µM (inactive) | 5.4 µM (inactive) |
| CC1(Sc2ccccc2)CN(Cc2ccccc2)C1=O (stereo not drawn) | > 100 µM (inactive) | – | > 100 µM (inactive) | 45.6 µM (inactive) | > 100 µM (inactive) | 39.5 µM (inactive) | > 100 µM (inactive) | > 100 µM (inactive) | > 100 µM (inactive) |
| C[C@]12CC/C(=N\OC(=O)Nc3ccccc3)C=C1CC[C@@H]1C2CC[C@@]2(C)C1CC[C@@H]2OC(=O)Nc1ccccc1 (stereo partly drawn) | > 100 µM (inactive) | 15.5 µM (inactive) | – | 23.2 µM (inactive) | > 100 µM (inactive) | 13.4 µM (inactive) | > 100 µM (inactive) | – | > 100 µM (inactive) |
| COC(=O)n1c(C[P+](c2ccccc2)(c2ccccc2)c2ccccc2)cc2ccccc21 | 3.37 µM (inactive) | 0.372 µM (active) | 1.06 µM (active) | 1.09 µM (active) | 0.697 µM (active) | 0.746 µM (active) | 1.94 µM (inactive) | – | – |
| CC(C)(C)CC(C)(C)c1cc2c(O)c(c1)Cc1cc(C(C)(C)CC(C)(C)C)cc(c1O)Cc1cc(C(C)(C)CC(C)(C)C)cc(c1O)Cc1cc(C(C)(C)CC(C)(C)C)cc(c1O)Cc1cc(C(C)(C)CC(C)(C)C)cc(c1O)Cc1cc(C(C)(C)CC(C)(C)C)cc(c1O)Cc1cc(C(C)(C)CC(C)(C)C)cc(c1O)Cc1cc(C(C)(C)CC(C)(C)C)cc(c1O)C2 | > 100 µM (inactive) | > 100 µM (inactive) | > 100 µM (inactive) | – | > 100 µM (inactive) | > 100 µM (inactive) | > 100 µM (inactive) | – | – |
| O/N=C1/C(=C/c2ccccc2)CCCC1C(NO)c1ccccc1 (stereo not drawn) | 50.6 µM (inactive) | 49.1 µM (inactive) | – | 30.7 µM (inactive) | > 100 µM (inactive) | 28.1 µM (inactive) | > 100 µM (inactive) | > 100 µM (inactive) | > 100 µM (inactive) |
| COc1ccc(C=O)c(N(C)C(=O)C(C)(C)C)c1 | > 100 µM (inactive) | – | – | > 100 µM (inactive) | > 100 µM (inactive) | 17.1 µM (inactive) | > 100 µM (inactive) | > 100 µM (inactive) | > 100 µM (inactive) |
| O=S(=O)(N/N=C/c1cccc(Cl)c1Cl)c1ccccc1 | > 100 µM (inactive) | 70.6 µM (inactive) | 45.4 µM (inactive) | 27.7 µM (inactive) | 71.4 µM (inactive) | 54.7 µM (inactive) | > 100 µM (inactive) | – | 87.3 µM (inactive) |
| COc1ccc(C)cc1-c1cc(Sc2ccccc2)c(-c2cc(C)ccc2OC)o1 | > 31.6 µM (inactive) | > 31.6 µM (inactive) | > 31.6 µM (inactive) | > 31.6 µM (inactive) | > 31.6 µM (inactive) | > 100 µM (inactive) | > 31.6 µM (inactive) | > 31.6 µM (inactive) | > 31.6 µM (inactive) |
| COc1cc(Nc2nc3cc(C)ccc3nc2-c2ccccc2)cc(OC)c1OC | – | 39.7 µM (inactive) | – | 6.9 µM (inactive) | 11.8 µM (inactive) | 19.7 µM (inactive) | 30.5 µM (inactive) | – | 24.3 µM (inactive) |
| CN(C)c1n/c(=N/c2cccc(Cl)c2)ss1 | 18.1 µM (inactive) | 7.14 µM (inactive) | 12.1 µM (inactive) | 11.2 µM (inactive) | 13 µM (inactive) | 16.7 µM (inactive) | 17.4 µM (inactive) | 13.5 µM (inactive) | > 100 µM (inactive) |
| COc1ccc(C(=O)C2CCC(C(=O)O)C2)cc1 (stereo not drawn) | > 100 µM (inactive) | > 100 µM (inactive) | > 100 µM (inactive) | > 100 µM (inactive) | > 100 µM (inactive) | – | > 100 µM (inactive) | – | – |
